The values that follow come from BindingDB's records for doi:10.1016/j.chembiol.2016.02.015 (Max Planck Institute of Molecular Physiology, 2016).

The structures appear in SMILES notation.

For orientation: IC50 means the concentration needed to halve the response being measured.

Test [1] has as its target Casein kinase I isoform alpha (Homo sapiens, UniProt P48729). In words: Radiometric-Based Assay (CK1α). Here is the method: Single-point measurements analyses and subsequent dose-dependent investigations of selected pteridine derivatives for inhibition of CK1α were performed at Reaction Biology (USA) using a radiometric-based assay and ATP concentration of 10 µM. For more details related to the experimental conditions employed please consult the following websites: http://www.reactionbiology.com/webapps/site/KinaseDetail.aspx.

The target in test [2] is Casein kinase I isoform delta (Homo sapiens, UniProt P48730). The test can be described thus: KinaseGlo Plus Luminescent Assay. To be noted: pH 7.5. Here is the method: (§1) A stock solution of 5 % DMSO (BioReagent for molecular biology, Sigma Aldrich) in water was prepared. The CK1 substrate peptide RRKDLHDDEEDEAMSITA (Jena Bioscience, cat. no. PE-206, 2 mM stock solution in water) was diluted in water to a final concentration of 250 μM. CK1δ or CK1Ɛ kinases were diluted with CK1 dilution buffer to 50 ng / µL. In addition, fresh Reaction buffer was prepared containing 250 mM Tris-HCl (pH 7.5), 50 mM MgCl2, 5 mM DTT and 0.5 mg / mL bovine serum albumin (BSA). Compounds were serially diluted in 5 % DMSO solution to the desired concentrations (maximal concentration employed in the assay was 50 µM). Additional samples included blank sample containing Reaction buffer, water and CK1δ / CK1Ɛ kinase and control sample containing Reaction buffer, CK1 substrate peptide and CK1δ / CK1Ɛ kinase. CK1 substrate peptide, Reaction buffer and CK1δ / CK1Ɛ kinase stock solutions were mixed in 1:1:1 ratio. 6 μL of this mixtur
Casein kinase I isoform delta, sequence (P48730 whole entry, canonical isoform): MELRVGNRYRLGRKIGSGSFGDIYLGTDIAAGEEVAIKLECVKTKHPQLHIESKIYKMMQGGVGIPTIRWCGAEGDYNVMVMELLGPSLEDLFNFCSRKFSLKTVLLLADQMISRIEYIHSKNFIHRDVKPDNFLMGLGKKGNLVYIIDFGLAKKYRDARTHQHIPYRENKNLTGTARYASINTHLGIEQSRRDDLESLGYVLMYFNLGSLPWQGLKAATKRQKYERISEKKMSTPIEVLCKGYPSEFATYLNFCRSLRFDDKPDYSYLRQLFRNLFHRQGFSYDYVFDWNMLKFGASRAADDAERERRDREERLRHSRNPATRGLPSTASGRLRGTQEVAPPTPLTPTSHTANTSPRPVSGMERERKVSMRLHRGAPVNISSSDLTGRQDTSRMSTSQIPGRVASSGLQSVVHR

Test [3] has as its target Casein kinase I isoform epsilon (Homo sapiens, UniProt P49674). The test can be described thus: KinaseGlo Plus Luminescent Assay. Conditions: pH 7.5. How it is done: as §1
For orientation: In Kinase-Glo more light means more ATP remaining.

Test [4] concerns the target T1, Eukaryotic elongation factor 2 kinase (Homo sapiens, UniProt O00418).
T1 sequence (O00418 whole entry): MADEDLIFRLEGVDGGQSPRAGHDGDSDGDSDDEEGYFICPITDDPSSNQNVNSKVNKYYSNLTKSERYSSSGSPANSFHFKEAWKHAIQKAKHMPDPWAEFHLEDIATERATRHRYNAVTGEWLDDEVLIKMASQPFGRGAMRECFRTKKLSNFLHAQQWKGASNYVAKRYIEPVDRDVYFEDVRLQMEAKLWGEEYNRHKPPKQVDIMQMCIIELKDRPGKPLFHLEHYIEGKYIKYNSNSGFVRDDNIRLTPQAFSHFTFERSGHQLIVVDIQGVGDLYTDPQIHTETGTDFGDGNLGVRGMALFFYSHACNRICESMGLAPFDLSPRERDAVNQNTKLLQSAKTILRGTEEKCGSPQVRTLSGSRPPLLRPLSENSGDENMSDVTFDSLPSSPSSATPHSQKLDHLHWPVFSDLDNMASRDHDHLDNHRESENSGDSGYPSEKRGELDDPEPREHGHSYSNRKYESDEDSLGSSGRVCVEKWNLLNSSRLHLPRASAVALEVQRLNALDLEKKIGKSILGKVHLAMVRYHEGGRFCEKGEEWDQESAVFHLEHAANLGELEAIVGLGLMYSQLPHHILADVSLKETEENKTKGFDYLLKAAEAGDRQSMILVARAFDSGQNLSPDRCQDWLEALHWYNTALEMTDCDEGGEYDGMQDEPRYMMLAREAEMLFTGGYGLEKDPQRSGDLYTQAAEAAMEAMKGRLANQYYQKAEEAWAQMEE
In words: Radiometric-Based Assay (Epiblastin A). The text has this: (§2) Dose-dependent investigations of Epiblastin A against BrSK1, Egfr, eEF2k, Mknk2, Ripk2 and Stk10 have been performed under the same experimental setup, i.e. at Km-ATP value. Half-maximal inhibitory concentrations (IC50) were obtained by fitting the obtained data with three parameter nonlinear regression analysis using GraphPad Prism version 6.00 for Windows (GraphPad Software, USA). For more details related to the experimental conditions employed at Eurofins please consult the following website: http://www.eurofins.com/pharma-services/pharma-discovery-services/services/in-vitropharmacology/kinases/biochemical.aspx

The target in test [5] is T2, Epidermal growth factor receptor [1-973] (Homo sapiens, UniProt P00533).
T2 construct: 1-973
T2 sequence (P00533 1-973): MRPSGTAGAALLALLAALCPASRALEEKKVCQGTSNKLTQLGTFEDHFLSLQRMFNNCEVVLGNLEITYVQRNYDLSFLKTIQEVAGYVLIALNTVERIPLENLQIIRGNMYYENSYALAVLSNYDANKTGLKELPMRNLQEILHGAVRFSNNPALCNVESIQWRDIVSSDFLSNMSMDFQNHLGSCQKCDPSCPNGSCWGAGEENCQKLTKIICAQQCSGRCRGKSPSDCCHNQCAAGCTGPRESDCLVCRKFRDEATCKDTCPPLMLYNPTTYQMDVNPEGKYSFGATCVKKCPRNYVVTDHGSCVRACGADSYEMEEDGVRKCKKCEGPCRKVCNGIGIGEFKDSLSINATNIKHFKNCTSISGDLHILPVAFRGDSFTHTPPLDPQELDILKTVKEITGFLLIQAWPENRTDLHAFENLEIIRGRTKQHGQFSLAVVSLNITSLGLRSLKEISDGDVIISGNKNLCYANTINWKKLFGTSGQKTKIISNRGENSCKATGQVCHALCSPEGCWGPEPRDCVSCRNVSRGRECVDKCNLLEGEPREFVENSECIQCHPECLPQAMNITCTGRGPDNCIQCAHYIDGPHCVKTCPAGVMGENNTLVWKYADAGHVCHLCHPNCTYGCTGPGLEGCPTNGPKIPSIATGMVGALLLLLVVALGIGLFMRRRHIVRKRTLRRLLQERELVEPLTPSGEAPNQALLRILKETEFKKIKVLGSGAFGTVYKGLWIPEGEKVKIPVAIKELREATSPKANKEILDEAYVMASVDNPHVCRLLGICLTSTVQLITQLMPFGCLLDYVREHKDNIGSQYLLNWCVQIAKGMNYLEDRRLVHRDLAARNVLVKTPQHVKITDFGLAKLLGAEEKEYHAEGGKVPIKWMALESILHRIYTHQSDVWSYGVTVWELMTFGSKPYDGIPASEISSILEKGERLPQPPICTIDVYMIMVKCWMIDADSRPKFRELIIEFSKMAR
In words: Radiometric-Based Assay (Epiblastin A).
Source text: as §2

The target in test [6] is MAP kinase-interacting serine/threonine-protein kinase 2 (Homo sapiens, UniProt Q9HBH9). The test can be described thus: Radiometric-Based Assay (Epiblastin A).
MAP kinase-interacting serine/threonine-protein kinase 2, sequence (Q9HBH9 whole entry): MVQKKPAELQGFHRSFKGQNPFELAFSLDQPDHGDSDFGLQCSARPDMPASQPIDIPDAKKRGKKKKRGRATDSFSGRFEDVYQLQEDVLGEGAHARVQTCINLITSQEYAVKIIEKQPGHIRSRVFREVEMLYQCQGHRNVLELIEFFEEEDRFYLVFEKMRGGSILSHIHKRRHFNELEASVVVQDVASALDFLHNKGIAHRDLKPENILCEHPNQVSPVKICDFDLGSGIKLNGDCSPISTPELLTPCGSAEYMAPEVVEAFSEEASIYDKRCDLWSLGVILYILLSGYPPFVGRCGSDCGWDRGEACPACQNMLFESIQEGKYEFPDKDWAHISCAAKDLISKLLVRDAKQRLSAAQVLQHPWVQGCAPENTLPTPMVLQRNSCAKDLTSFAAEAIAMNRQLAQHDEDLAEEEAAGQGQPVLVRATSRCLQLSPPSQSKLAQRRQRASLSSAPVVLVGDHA
Source text: as §2

Test [7] has as its target T3, Serine/threonine-protein kinase BRSK1 (Homo sapiens, UniProt Q8TDC3).
T3 sequence (Q8TDC3 whole entry): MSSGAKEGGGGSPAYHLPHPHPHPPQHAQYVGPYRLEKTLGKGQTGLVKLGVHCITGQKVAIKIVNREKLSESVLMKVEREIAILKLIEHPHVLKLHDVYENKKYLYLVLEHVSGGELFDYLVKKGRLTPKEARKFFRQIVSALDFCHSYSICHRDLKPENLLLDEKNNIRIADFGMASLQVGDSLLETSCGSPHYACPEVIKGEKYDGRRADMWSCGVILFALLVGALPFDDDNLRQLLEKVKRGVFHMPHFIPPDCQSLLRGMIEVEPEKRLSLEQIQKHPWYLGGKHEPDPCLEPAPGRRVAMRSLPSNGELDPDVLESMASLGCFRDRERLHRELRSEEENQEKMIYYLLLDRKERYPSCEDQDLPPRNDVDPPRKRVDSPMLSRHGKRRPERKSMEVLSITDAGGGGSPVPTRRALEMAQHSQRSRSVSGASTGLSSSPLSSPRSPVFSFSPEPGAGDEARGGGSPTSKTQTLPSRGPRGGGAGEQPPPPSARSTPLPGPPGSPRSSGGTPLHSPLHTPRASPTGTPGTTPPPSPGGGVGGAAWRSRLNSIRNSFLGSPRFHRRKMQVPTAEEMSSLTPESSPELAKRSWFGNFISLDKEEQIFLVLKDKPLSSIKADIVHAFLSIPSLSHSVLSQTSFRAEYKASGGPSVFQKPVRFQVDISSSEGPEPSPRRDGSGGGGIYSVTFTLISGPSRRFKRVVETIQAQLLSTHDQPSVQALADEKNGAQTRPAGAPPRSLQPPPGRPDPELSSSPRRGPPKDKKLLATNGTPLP
In words: Radiometric-Based Assay (Epiblastin A).
Source text: as §2

The target in test [8] is Receptor-interacting serine/threonine-protein kinase 2 (Homo sapiens, UniProt O43353). In words: Radiometric-Based Assay (Epiblastin A).
Receptor-interacting serine/threonine-protein kinase 2, sequence (O43353 whole entry): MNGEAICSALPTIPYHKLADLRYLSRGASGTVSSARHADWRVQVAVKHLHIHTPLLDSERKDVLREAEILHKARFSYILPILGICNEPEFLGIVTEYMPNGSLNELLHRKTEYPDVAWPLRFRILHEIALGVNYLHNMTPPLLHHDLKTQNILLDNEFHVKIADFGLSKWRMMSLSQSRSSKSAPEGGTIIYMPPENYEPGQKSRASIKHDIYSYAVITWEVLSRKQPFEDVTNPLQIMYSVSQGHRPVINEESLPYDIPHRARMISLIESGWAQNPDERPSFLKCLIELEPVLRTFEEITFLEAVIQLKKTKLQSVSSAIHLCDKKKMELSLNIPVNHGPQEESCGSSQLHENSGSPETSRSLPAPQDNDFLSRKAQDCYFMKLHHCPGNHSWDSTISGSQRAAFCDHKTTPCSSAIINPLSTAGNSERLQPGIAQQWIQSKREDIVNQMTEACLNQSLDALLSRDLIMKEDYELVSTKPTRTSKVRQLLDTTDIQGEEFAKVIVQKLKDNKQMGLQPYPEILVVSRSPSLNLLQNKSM
Source text: as §2

Casein kinase I isoform alpha, sequence (P48729 whole entry, canonical isoform): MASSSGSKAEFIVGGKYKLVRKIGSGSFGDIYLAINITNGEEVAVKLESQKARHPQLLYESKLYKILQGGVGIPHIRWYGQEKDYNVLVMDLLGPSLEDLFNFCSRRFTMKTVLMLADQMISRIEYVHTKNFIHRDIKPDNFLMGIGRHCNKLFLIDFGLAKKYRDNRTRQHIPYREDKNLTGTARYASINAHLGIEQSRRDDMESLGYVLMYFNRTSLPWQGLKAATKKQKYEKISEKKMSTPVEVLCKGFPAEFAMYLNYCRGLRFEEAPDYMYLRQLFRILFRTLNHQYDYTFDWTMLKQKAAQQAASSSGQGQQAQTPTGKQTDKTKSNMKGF
Casein kinase I isoform epsilon, sequence (P49674 whole entry, canonical isoform): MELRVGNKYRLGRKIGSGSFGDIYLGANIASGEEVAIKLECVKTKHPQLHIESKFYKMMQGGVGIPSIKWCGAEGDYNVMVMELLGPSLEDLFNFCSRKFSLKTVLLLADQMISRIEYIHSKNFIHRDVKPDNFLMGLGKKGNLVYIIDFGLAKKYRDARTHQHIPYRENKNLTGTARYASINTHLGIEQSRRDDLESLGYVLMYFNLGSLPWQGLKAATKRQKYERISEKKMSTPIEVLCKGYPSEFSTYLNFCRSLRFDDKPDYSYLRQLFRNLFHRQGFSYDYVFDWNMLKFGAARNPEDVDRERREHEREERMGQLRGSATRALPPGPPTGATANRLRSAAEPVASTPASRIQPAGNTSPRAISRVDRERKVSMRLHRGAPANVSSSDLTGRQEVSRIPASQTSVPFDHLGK

For `Nc1nc(N)c2nc(-c3csc4ccccc34)c(N)nc2n1` [6-(1-benzothiophen-3-yl)pteridine-2,4,7-triamine (31)], the IC50 in test [1] stood at 5.6 µM; in test [2], 2.8 µM; in test [3] it was 0.6 µM.
Take `Nc1nc(N)c2nc(-c3ccc(Cl)cc3Cl)c(N)nc2n1` [6-(2,4-dichlorophenyl)pteridine-2,4,7-triamine (25)]: the IC50 in test [1] worked out at 55.6 µM; in test [3], 4.3 µM.
Consider `Nc1nc(N)c2nc(-c3cc(F)ccc3F)c(N)nc2n1` [6-(2,5-difluorophenyl)pteridine-2,4,7-triamine (28)], for which the IC50 in test [3] worked out at 38.4 µM.
The same measure, in the same setting: to `Nc1nc(N)c2nc(-c3c(Cl)cccc3Cl)c(N)nc2n1` [6-(2,6-dichlorophenyl)pteridine-2,4,7-triamine (24)] belongs 38.9 µM.
For `Nc1nc(N)c2nc(-c3c(F)cccc3F)c(N)nc2n1` [6-(2,6-difluorophenyl)pteridine-2,4,7-triamine (27)], the 50% inhibitory concentration (IC50) in test [2] was 35.7 µM; in test [3], 51.5 µM.
For the compound `Nc1nc(N)c2nc(-c3ccccc3F)c(N)nc2n1` [6-(2-fluorophenyl)pteridine-2,4,7-triamine (23)], the IC50 in test [3] is 28.3 µM.
On to `Nc1cccc(-c2nc3c(N)nc(N)nc3nc2N)c1` [6-(3-aminophenyl)pteridine-2,4,7-triamine (21)], for which the IC50 in test [2] stood at 32.4 µM; in test [3] it was 12.4 µM.
Consider `Nc1nc(N)c2nc(-c3cccc(Br)c3)c(N)nc2n1` [6-(3-bromophenyl)pteridine-2,4,7-triamine (18)], for which the IC50 in test [1] was determined as 9.3 µM; in test [2] it was 2.5 µM.
Take `Nc1nc(N)c2nc(-c3cccc(F)c3)c(N)nc2n1` [6-(3-fluorophenyl)pteridine-2,4,7-triamine (16)]: the results for the IC50 in test [1], in test [2] and in test [3] were 33.3 µM, 61.8 µM and 14.4 µM, respectively.
Regarding `COc1cccc(-c2nc3c(N)nc(N)nc3nc2N)c1` [6-(3-methoxyphenyl)pteridine-2,4,7-triamine (20)], the IC50 in test [2] amounted to 12.3 µM; in test [3] it was 26.3 µM.
For the compound `Nc1ccc(-c2nc3c(N)nc(N)nc3nc2N)cc1` [6-(4-aminophenyl)pteridine-2,4,7-triamine (10)], in test [2], the half-maximal inhibitory concentration (IC50) turned out to be 81.2 µM.
As for `Nc1nc(N)c2nc(-c3cccnc3)c(N)nc2n1` [6-(pyridin-3-yl)pteridine-2,4,7-triamine (33)], the IC50 stood at 16.1 µM in test [2] and 15.5 µM in test [3].
Consider `Nc1nc(N)c2nc(-c3cccs3)c(N)nc2n1` [6-(thiophen-2-yl)pteridine-2,4,7-triamine (32)], for which the IC50 was 14.2 µM in test [1], 24.4 µM in test [2] and 8.1 µM in test [3].
On to `Cc1cccc(-c2nc3c(N)nc(N)nc3nc2N)c1` [6-m-Tolyl-pteridine-2,4,7-triamine], for which the IC50 in test [2] is 20.2 µM.
With `Nc1nc(N)c2nc(-c3ccccc3)cnc2n1` [6-phenylpteridine-2,4-diamine (35)], the IC50 in test [1] turned out to be 29.5 µM; in test [2], 80.6 µM; in test [3] it was 6 µM.
In the same order, the values of `Nc1nc(N)c2nc(-c3cccc(Oc4ccccc4)c3)c(Cc3ccccc3)nc2n1` [7-benzyl-6-(3-phenoxyphenyl)pteridine-2,4-diamine (36)] are 5.5 µM, 9.6 µM and 6.6 µM.
For `Nc1nc(N)c2nc(-c3cccc(Cl)c3)c(N)nc2n1` [Epiblastin A], the IC50 in test [4] was 27.4 µM; in test [5], 8.3 µM; in test [6], 45.1 µM; in test [7], 24.2 µM; in test [8], 38.1 µM; in test [1], 8.9 µM. Besides, the results for the IC50 in test [2] and in test [3] were 0.5 µM and 4.7 µM, respectively.
Take `Nc1nc(N)c2nc(-c3ccccc3)c(N)nc2n1` [Pteridine deriv. 11]: the IC50 in test [1] worked out at 36.8 µM; in test [2], 36.4 µM; in test [3], 26.8 µM.
